This note sets out measurements from US20250059196A1 (SHANGHAI HANSOH BIOMEDICAL CO., LTD., priority 2021, published 2025).

Data set [1] has as its target Recombinant human MALT1/MLT protein (Homo sapiens (Human), UniProt Q9UDY8). The data set is described as follows: Inhibitory effect on MALT1 enzyme activity (Ac-LRSR-AMC substrate, fluorescence 460 nm). The format is biochemical. The following applies: 10 nM FL MALT1, Ac-LRSR-AMC substrate, 50 min pre-incubation, 4 h reaction. As to the method: Ac-LRSR-AMC was used as the substrate to test the IC50 of the inhibitory activity of compounds on MALT1 enzyme activity at their Km concentration.
Ac-LRSR-AMC was used as the substrate which was digested by MALT1 to produce products, which produced fluorescence that could be detected at 460 nm. The highest concentration of the compound detected was 1000 nM, 3-fold dilution, a total of 11 concentrations (1000 nM-0.017 nM). The reaction system is 10 nM FL MALT1 protein, […] Ac-LRSR-AMC, 50 mM Tris pH 7.5, 0.6M Citrate, 1 mM DTT, 1 mM EDTA, 0.05% BSA and 1.5% DMSO. The compound and the enzyme were pre-incubated at room temperature for 50 min. The substrate was then added and the reaction was carried out for 4 h.
The original data (460 nm reading) was calculated according to the following formula to obtain the inhibition rate.
(§1) Log(inhibitor) vs. response—Variable slope (four parameters) in GraphPad Prism 6 was used to perform fitting equation analysis on compound concentration and corresponding inhibition rate, the curve was fit and compound IC50 value was obtained.
(§2) The fitting calculation equation is Y=Bottom+(Top−Bottom)/(1+10^((Log IC50−X)*HillSlope))

In data set [2] the target is MALT1 protease activity in TMD8 cells (substrate BCL-10) (Homo sapiens (Human), UniProt Q9UDY8). As to the kind of experiment: Intracellular MALT1 protease activity detection (BCL-10 ELISA in TMD8 cells). The data set is classed as cell-based. The following applies: undigested BCL-10 by ELISA, 30 min compound then 2 h stimulation cocktail, read-out: Bcl10 TMD8 IC50. As to the method: By detecting the digestion level of the substrate BCL-10 by MALT1 in TMD8 cells, the inhibitory effect of the compound on MALT1 protease activity in the cellular environment was tested.
The ELISA sandwich method was used to detect the content of undigested BCL-10 protein in cells and determine the inhibitory effect of compounds on intracellular MALT1 protease activity. The highest concentration of the compound detected was 10000 nM, 3-fold dilution, a total of 9 concentrations (10000 nM-1.5 nM). Cells were plated at an appropriate density. Compounds of corresponding concentrations were first added for action for 30 min, and then eBioscience cell stimulation cocktail was added to stimulate the cells for 2 h. Cell lysate was then collected. The cell lysate was added to the assay plate previously coated with recombinant BCL-10 antibody (Abcam, #Ab33905) and incubated at 4° C. overnight. The next day, BCL-10 detection antibody (Santacruz, #Sc-5273HRP) was added and incubated for 2 h, TMB substrate was used for color development for about 30 min, then the color development was terminated, and a microplate reader was used for detection.
2) Curve fitting: Log(inhibitor) vs. response—Variable slope (four parameters) in GraphPad Prism 6 was used to perform fitting equation analysis on compound concentration and corresponding inhibition rate, the curve was fit and compound IC50 value was obtained.
as §2
In general terms: In an ELISA, binding on a coated surface is turned into a signal by an enzyme label.

Data set [3] is described as follows: Pharmacokinetics of oral administration in Balb/C mice. The data set is classed as in vivo. The following applies: 30 mg/kg, P.O., plasma. Also noted: Cmax: unit: ng/mL. As to the method:
Balb/C mice were used as test animals to study the pharmacokinetic behavior of the compound in the plasma of mice after oral administration at a dose of 30 mg/kg.
3 Balb/C mice (3/example), male, from Shanghai Jiesijie Experimental Animal Co., Ltd., animal production license number (SCXK (Shanghai) 2013-0006 N0.311620400001794).
3 Balb/C mice, male; p.o. respectively at a dose of 30 mg/kg and an administration volume of 10 mL/kg after the mice were fasted overnight.
Before and after administration of mice, 0.1 mL of blood was collected from the orbit at 0, 0.5, 1, 2, 4, 6, 8 and 24 h, and placed in EDTA-K2 test tubes, which was centrifuged at 6000 rpm at 4° C. for 6 min to separate plasma which was stored at −80° C.
• 1) 160 μL of acetonitrile was added to 40 μL of plasma sample for precipitation, and same was mixed and centrifuged at 3500×g for 5 to 20 min. • 2) 100 μL of the treated supernatant solution was taken and subjected to LC/MS/MS to analyze the concentrations of the test compounds.
• Liquid phase conditions: Shimadzu LC-20AD pump • Mass spectrometry conditions: AB Sciex API 4000 mass spectrometer • Chromatographic column: Phenomenex Gemiu 5 um C18 50×4.6 mm • Mobile phase: liquid A is 0.1% aqueous formic acid solution, liquid B is acetonitrile • flow rate: 0.8 mL/min • Elution time: 0-4.0 min, the eluent is as follows:
The main pharmacokinetic parameters were calculated using WinNonlin 8.2.

A further data set concerns OCI-Ly3 cells. The data set is described as follows: Inhibition of proliferation of OCI-Ly3 cells (CellTiter-Glo). Particulars: 96 h incubation, read-out: Inhibition test of proliferation of OCI-Ly3 cells IC50. The data set is classed as cell-based, human. The method, then: The compound's inhibitory effect on the proliferation of TMD8 and OCI-Ly3 cells was evaluated through cell proliferation inhibition experiments.
The compound's inhibitory effect on the proliferation of TMD8 and OCI-Ly3 cells was detected by the CellTiter-Glo method. The highest concentration of the compound detected was 1000 nM, 3-fold dilution, a total of 9 concentrations (1000 nM-0.15 nM). After the cells were plated at an appropriate density, compounds were added the next day and incubated for 96 h before detection using the CellTiter-Glo Luminescent detection kit.
as §1, §2
On the technique in general: ATP-based viability assays read luminescence as a measure of living cells.

The nature of data set [4]: Caco-2 bidirectional permeability test. Particulars: human, Caco-2.
Procedure: (§3) The purpose of this experiment is to test the bidirectional permeability of the compound through the Caco-2 cell model and evaluate whether the compound is transported by efflux transporters.
(§4) Liquid chromatography-mass spectrometer, centrifuge, vortexer, pipette, 96-well test plate (HTS Transwell Plate), acetonitrile solution containing internal standard, Caco-2 cells (ATCC), Hank's balance solution (HBSS), fluorescent yellow (LY), dimethyl sulfoxide (DMSO).
(§5) 108 μL of transport buffer (HBSS containing 10 μM of the example compound) was added to the administration end of A to B. • b. 300 μL of transport buffer (HBSS containing DMSO) was added to the receiving end of A to B. • c. 300 μL of transport buffer (HBSS containing 10 μM example compound) was added to the administration end of A to B. • d. 108 μL of transport buffer (HBSS containing DMSO) was added to the receiving end of A to B. • e. incubation was performed for 90 min. • d. a sample was taken, processed and detected with mass spectrometry.
(§6) • Instruments: Liquid Chromatography; • Chromatographic column: Waters XSelect HSS T3 2.5 μm (2.1×50 mm); • Mobile phase: Phase A: 0.1% formic acid in pure water; Phase B: 0.1% formic acid in acetonitrile.
(§7) • Instruments: AP16500+liquid chromatography-mass spectrometer; • The ion source is electrospray ionization source (ESI); • The detection method is positive ion detection;
(§8) The scanning method is selected reaction monitoring (MRM).
[5] abbreviates: male, mouse, po, read-out: AUC 0-t.
[6] abbreviates: male, mouse, po, read-out: Cmax.
[7] abbreviates: male, mouse, po, read-out: Tmax.

The structures appear in SMILES notation. Read-outs that look alike come from different tables or passages of the source.

Sequence of Recombinant human MALT1/MLT protein (Q9UDY8 whole entry): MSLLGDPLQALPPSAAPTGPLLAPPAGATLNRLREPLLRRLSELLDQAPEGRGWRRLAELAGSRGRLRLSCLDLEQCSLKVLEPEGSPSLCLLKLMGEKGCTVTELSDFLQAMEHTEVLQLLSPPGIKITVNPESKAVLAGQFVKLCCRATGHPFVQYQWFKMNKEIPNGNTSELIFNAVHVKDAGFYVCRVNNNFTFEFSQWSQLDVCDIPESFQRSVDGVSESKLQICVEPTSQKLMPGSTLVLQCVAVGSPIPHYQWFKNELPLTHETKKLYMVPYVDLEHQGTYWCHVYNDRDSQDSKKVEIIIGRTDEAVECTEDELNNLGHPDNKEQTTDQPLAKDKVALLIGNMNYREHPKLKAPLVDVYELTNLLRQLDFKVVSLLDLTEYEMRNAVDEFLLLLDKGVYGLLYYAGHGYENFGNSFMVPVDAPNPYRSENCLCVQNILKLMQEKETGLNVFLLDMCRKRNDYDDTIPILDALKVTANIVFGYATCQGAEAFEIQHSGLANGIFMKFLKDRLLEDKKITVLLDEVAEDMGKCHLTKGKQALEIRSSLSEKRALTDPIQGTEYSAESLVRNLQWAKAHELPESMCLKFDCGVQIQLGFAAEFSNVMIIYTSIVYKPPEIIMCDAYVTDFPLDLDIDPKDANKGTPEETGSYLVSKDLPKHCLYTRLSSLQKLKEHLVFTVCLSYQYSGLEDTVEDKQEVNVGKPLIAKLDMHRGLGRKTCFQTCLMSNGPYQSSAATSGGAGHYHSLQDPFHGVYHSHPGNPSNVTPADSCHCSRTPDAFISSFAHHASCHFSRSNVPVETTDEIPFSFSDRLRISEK
Sequence of MALT1 protease activity in TMD8 cells (substrate BCL-10) (Q9UDY8 whole entry): as above
Procedure for Caco-2 cells: as §3, §4, §5, §6, §7, §8

In the case of `O=C(Nc1ccnc(C(F)(F)F)c1)c1cnn(-c2ccc3c4c(cccc24)C(=O)N3)c1C(F)(F)F` [Example 3], the IC50 in data set [1] was 105 nM. Further, the IC50 in data set [2] turned out to be 83 nM. Further, in data set [3], the “AUC0-∞” value is 341,390 ng/mL*hr; the AUC(0-t) (usually exposure summed from dosing to a finite time, without extrapolation to infinity) is on record as 330,088 ng/mL*h; the Cmax – broadly, the peak of the concentration-time curve – is reported as 23,733 ng/mL; the MRT (as a rule, the average time that molecules of a dose stay in the body) came out at 7.4 h. Moreover, in data set [3], the T1/2 was 4.7 h and the Tmax (in general, the time at which the peak concentration occurs) was found to be 4.0 h. In the data set with Caco-2 cells (Caco-2), the “Papp A − B” value is reported as 1.57 10^−6 cm · s^−1 and the “Papp B − A” value is 10.24 10^−6 cm · s^−1. Also, the “Papp(B − A)/Papp(A − B)” value with Caco-2 cells (human, Caco-2, 90 min, 10 μM) was determined as 6.52.

Take `O=C(Nc1cnc(-n2nccn2)c(Cl)c1)c1cnn(-c2ccc3c4c(cccc24)C(=O)N3)c1C(F)(F)F` [Example 5, N-(6-(2H-1,2,3-triazol-2-yl)-5-chloropyridin-3-yl)-1-(2-oxo-1,2-dihydrobenzo[cd]indol-6-yl)-5-trifluoromethyl-1H-pyrazole-4-carboxamide]: in data set [1], the IC50 was 15 nM. In addition, the IC50 in the data set on OCI-Ly3 cells (Homo sapiens) came out at 120 nM. Further, the IC50 in data set [2] is 36 nM. In addition, in data set [3] (male, mouse, po), the AUC(0-inf) (commonly the area under the concentration-time curve extrapolated to infinity) amounted to 64100 ng·h/mL and the half-life (in general, how long it takes for the measured level to halve) is 2.1 h. Further, in data set [3] (setting [5]), the AUC(0-t) worked out at 64100 ng·h/mL. Moreover, the Cmax in data set [3] (setting [6]) is 7180 ng/mL. For the same compound, the MRT in data set [3] (male, mouse, po, read-out: MRT) came out at 5.2 h. Moreover, the Tmax in data set [3] (setting [7]) was 2 h. In data set [4], the Papp A→B (commonly the apparent permeability from the apical to the basolateral side of a cell layer) at 90 min, 10 µM turned out to be 1 ×10⁻⁶ cm/s; the Papp B→A (in general, how fast a substance crosses the layer from the basolateral side) at 90 min, 10 µM came to 7.03 ×10⁻⁶ cm/s; the efflux ratio (as a rule, a quotient of directional permeabilities that is used to spot active efflux) at 90 min, 10 µM stood at 7.09.

For the compound `O=C(Nc1cc(Cl)n2ncc(Cl)c2c1)c1cnn(-c2ccc3c4c(cccc24)C(=O)N3)c1C(F)(F)F` [Example 13, N-(3,7-dichloropyrazolo[1,5-a]pyridin-5-yl)-1-(2-oxo-1,2-dihydrobenzo[cd]indol-6-yl)-5-trifluoromethyl-1H-pyrazole-4-carboxamide], the IC50 in data set [1] turned out to be 107 nM. In addition, the IC50 in the data set with OCI-Ly3 cells (Homo sapiens) stood at 272 nM. In data set [3] (male, mouse, po), this compound had an AUC(0-inf) of 67800 ng·h/mL and a half-life of 6.2 h. In addition, the AUC(0-t) in data set [3] (setting [5]) stood at 62700 ng·h/mL. The Cmax in data set [3] (setting [6]) is 4380 ng/mL. Also, the MRT in data set [3] (male, mouse, po, read-out: MRT) is 9.4 h. For the same compound, the Tmax in data set [3] (setting [7]) was 4 h. In data set [4], the Papp A→B at 90 min, 10 µM amounted to 7.63 ×10⁻⁶ cm/s; the Papp B→A at 90 min, 10 µM amounted to 19.1 ×10⁻⁶ cm/s; the efflux ratio at 90 min, 10 µM amounted to 2.5.

Regarding `Cc1ncn(-c2ncc(NC(=O)c3cnn(-c4ccc5c6c(cccc46)C(=O)N5)c3C(F)(F)F)cc2Cl)n1` [Example 46], the IC50 in data set [1] came out at 93 nM; in the data set on OCI-Ly3 cells, 222 nM; in data set [2], 80 nM.

As for `O=C(Nc1cnc(-n2nccn2)c(C(F)F)c1)c1cnn(-c2ccc3c4c(cccc24)C(=O)N3)c1C(F)(F)F` [Example 49, N-(5-difluoromethyl-6-(2H-1,2,3-triazol-2-yl)-pyridin-3-yl)-1-(2-oxo-1,2-dihydrobenzo[cd]indol-6-yl)-5-trifluoromethyl-1H-pyrazole-4-carboxamide], the IC50 was 28 nM in data set [1], 97 nM in the data set on OCI-Ly3 cells (Homo sapiens) and 73 nM in data set [2]. The same compound had an AUC(0-inf) in data set [3] (male, mouse, po) of 105000 ng·h/mL. In data set [3] (male, mouse, po), this compound had a half-life of 2.1 h. Moreover, the AUC(0-t) in data set [3] (setting [5]) was 105000 ng·h/mL. Moreover, the Cmax in data set [3] (setting [6]) came out at 15300 ng/mL. Also, the MRT in data set [3] (male, mouse, po, read-out: MRT) is 4.3 h. Also, in data set [3] (setting [7]), the Tmax was determined as 2 h.

Consider `O=C(Nc1cnc(-n2nccn2)c(C(F)(F)F)c1)c1cnn(-c2ccc3c4c(cccc24)C(=O)N3)c1C1CC1` [Example 56, N-(6-(2H-1,2,3-triazol-2-yl)-5-(trifluoromethyl)pyridin-3-yl)-5-cyclopropyl-1-(2-oxo-1,2-dihydrobenzo[cd]indol-6-yl)-1H-pyrazole-4-carboxamide], for which the IC50 in data set [1] came out at 31 nM; in the data set with OCI-Ly3 cells (Homo sapiens), 152 nM; in data set [2], 93 nM.

Regarding `O=C(Nc1cnc(-n2nccn2)c(Cl)c1)c1cnn(-c2ccc3c4c(cccc24)C(=O)N3)c1C1CC1` [Example 60, N-(5-chloro-6-(2H-1,2,3-triazol-2-yl)-pyridin-3-yl)-5-cyclopropyl-1-(2-oxo-1,2-dihydrobenzo[cd]indol-6-yl)-1H-pyrazole-4-carboxamide], the IC50 in data set [1] came out at 16 nM; in the data set on OCI-Ly3 cells (Homo sapiens), 132 nM; in data set [2] it was 57 nM.

For the compound `O=C(Nc1ccc(-n2nccn2)c(Cl)c1)c1cnn(-c2ccc3c4c(cccc24)C(=O)N3)c1C1CC1` [Example 63, N-(3-chloro-4-(2H-1,2,3-triazol-2-yl)phenyl)-5-cyclopropyl-1-(2-oxo-1,2-dihydrobenzo[cd]indol-6-yl)-1H-pyrazole-4-carboxamide], the results for the IC50 (in data set [1]; in the data set with OCI-Ly3 cells (Homo sapiens); in data set [2]) were 28 nM, 154 nM and 58 nM, respectively.

For `O=C(Nc1cnc(-n2nccn2)c(C(F)(F)F)c1)c1cnn(-c2cnc3c4c(cccc24)C(=O)N3)c1C(F)(F)F` [Example 68], the IC50 in data set [1] worked out at 51 nM. For the same compound, in the data set with OCI-Ly3 cells, the IC50 worked out at 271 nM. Moreover, the IC50 in data set [2] amounted to 72 nM. In data set [3], the “AUC0-∞” value was 10,388 ng/mL*hr, the “AUC(0-t)” value is 10,168 ng/mL*h, the Cmax was 2,670 ng/mL and the MRT is 2.6 h. Besides, in data set [3], the T1/2 turned out to be 1.2 h and the Tmax came out at 0.5 h.

As for `O=C(Nc1ccc(-n2nccn2)c(Cl)c1)c1cnn(-c2cnc3c4c(cccc24)C(=O)N3)c1C(F)(F)F` [Example 75, N-(3-chloro-4-(2H-1,2,3-triazol-2-yl)phenyl)-1-(2-carbonyl-1,2-dihydropyrrolo[4,3,2-ij]isoquinolin-6-yl)-5-(trifluoromethyl)-1H-pyrazole-4-carboxamide], the IC50 in the data set on OCI-Ly3 cells (Homo sapiens) turned out to be 213 nM. For the same compound, the IC50 in data set [2] was 83 nM. In data set [3] (male, mouse, po), this compound showed an AUC(0-inf) of 12200 ng·h/mL and a half-life of 3 h. In addition, in data set [3] (setting [5]), the area under the curve AUC(0-t) turned out to be 12200 ng·h/mL. The Cmax in data set [3] (setting [6]) was 1290 ng/mL. In data set [3] (male, mouse, po, read-out: MRT), the MRT came to 5.5 h. In data set [3] (setting [7]), the Tmax was found to be 2 h.
